Results reported in PubChem BioAssay (NCI).
“And” between values parts separate entries of the source, which are not always exact repeats. Identical values can stand only once.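 Briefly, cells in 96-well plates were exposed to five compound concentrations for 48 h, and endpoints were estimated by linear interpolation. At the GI50, growth is halved. The concentration for full growth arrest is given as TGI.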

Assays:
Test in all cases: NCI tumour cell line growth inhibition, 48 h
[1] = system: 786-0 renal
[2] = system: OVCAR-3 ovarian
[3] = system: UACC-62 melanoma
[4] = system: K-562 leukemia
[5] = system: SW-620 colon
[6] = system: NCI-H460 lung
[7] = system: SK-MEL-2 melanoma
[8] = system: UO-31 renal
[9] = system: LOX IMVI melanoma
[10] = system: RPMI-8226 leukemia

SMILES | GI50 [1] | TGI [1] | GI50 [2] | TGI [2] | GI50 [3] | TGI [3] | GI50 [4] | TGI [4] | GI50 [5] | TGI [5] | GI50 [6] | TGI [6] | GI50 [7] | TGI [7] | GI50 [8] | TGI [8] | GI50 [9] | TGI [9] | GI50 [10] | TGI [10]
Nc1ncnc2c1c(-c1cccc(OCc3ccccc3)c1)cn2C1CC(CN2CCC2)C1 (stereo not given) | 1.92 µM and 2.14 µM | 3.98 µM and 4.83 µM | 6.26 µM and 7.96 µM | 19.3 µM and > 10 µM | 1.74 µM and 1.5 µM | 3.58 µM and 3.33 µM | 1.71 µM and 2.08 µM | 4.43 µM and 6.32 µM | 1.29 µM and 1.56 µM | 6.47 µM and > 10 µM | 2.41 µM and 2.87 µM | 15.4 µM and > 10 µM | 1.58 µM and 2.21 µM | 3.36 µM and 6.1 µM | 1.31 µM and 1.75 µM | 4.34 µM and 9.79 µM | 1.51 µM and 1.41 µM | 3.02 µM and 3 µM | 1.9 µM and 2.18 µM | 5.41 µM and 5.31 µM
COc1cc2c(cc1OC)C(OC)N(C)c1c-2ccc2cc3c(cc12)OCO3 (stereo not given) |  | 5.47 µM |  | 5.68 µM |  | 3.08 µM |  | 33.2 µM |  | 8.35 µM |  | 3.58 µM |  | 5.02 µM |  | 74.7 µM |  | > 32.8 µM |  | 13.4 µM
O=[N+]([O-])/C=C/c1cc2ccccc2[nH]1 |  | 27.9 µM |  | 28.2 µM |  | 33.7 µM |  | 52.8 µM |  | 34.5 µM |  | 30.4 µM |  | 34.6 µM |  | 31.9 µM |  | 29.5 µM |  | 9.85 µM
COc1ccc(C(=O)C(c2ccc(OC)cc2)C2OC(=O)C(Cl)=C2Cl)cc1 (stereo not given) |  | > 100 µM |  | > 100 µM |  | > 100 µM |  | > 100 µM |  | > 100 µM |  | > 100 µM |  | > 100 µM |  | > 100 µM |  | > 100 µM |  | > 100 µM
O=C(O)CCC/C=C\C[C@H]1C=CC(=O)/C1=C/C[C@@H](O)CCc1cccc(C(F)(F)F)c1 | 2.95 µM | 6.61 µM | 1.99 µM | 5.61 µM | 2.29 µM | 6.94 µM | 2.24 µM | 10.1 µM | 3.1 µM | 10.1 µM | 2.23 µM | 4.96 µM | 2.65 µM | 7.98 µM | 1.68 µM | 3.16 µM | 1.29 µM | 2.89 µM | 1.91 µM | 12.2 µM
COc1ccc(-c2nc(C(=O)c3ccccc3)n(CC(=O)c3ccccc3)c2-c2ccc(OC)cc2)cc1 | > 100 µM | > 100 µM | > 100 µM | > 100 µM | > 100 µM | > 100 µM | > 100 µM | > 100 µM | > 100 µM | > 100 µM | > 100 µM | > 100 µM | > 100 µM | > 100 µM | > 100 µM | > 100 µM | > 100 µM | > 100 µM | > 100 µM | > 100 µM
CC(=O)C1C(=O)NC(=O)C1=O (stereo not given) |  | > 100 µM |  | > 100 µM |  | > 100 µM |  | > 100 µM |  | > 100 µM |  | > 100 µM |  | > 100 µM |  | > 100 µM |  | > 100 µM |  | > 100 µM
CC(=O)O[C@@H]1[C@@H](O)C2=C3[C@]4(C)[C@@H]1C(C)(C)C(=O)C[C@@H]4[C@]3(O)[C@H](OC(C)=O)[C@@]1(C[C@@H]1C)C2=O |  | 32.4 µM |  | 36.5 µM |  | 33.2 µM |  | > 100 µM |  | 42.8 µM |  | 40.1 µM |  | 68.5 µM |  | 33.9 µM |  | 30.5 µM |  | 98.4 µM
COC(=O)Nc1nc2ccc(C(=O)c3ccc(N(C)C4COC4)cc3)cc2[nH]1 | 0.5 µM | > 100 µM | 0.375 µM | > 100 µM | 0.38 µM | > 100 µM | 0.333 µM | > 100 µM | 0.355 µM | > 100 µM | 0.359 µM | > 100 µM | 0.593 µM | > 100 µM | 0.883 µM | > 100 µM | 0.761 µM | > 100 µM | 0.369 µM | > 47.5 µM
CCn1cc(-c2ccnc3[nH]ccc23)c(-c2cccc(NC(=O)Nc3ccc(OCc4ccccc4)cc3)c2)n1 | 6.82 µM | > 25 µM | 6.24 µM | 19.6 µM | 5.89 µM | > 25 µM | 4.72 µM | > 25 µM | 20.2 µM | > 25 µM | 7.45 µM | > 25 µM | 8.14 µM | > 25 µM | 15 µM | > 25 µM | 6.01 µM | > 25 µM | 4.19 µM | > 25 µM
NCCN.NCCN.O=C[O-].O=C[O-].[Co+3].[O-][Cl+3]([O-])([O-])[O-] | > 100 µM | > 100 µM | > 100 µM | > 100 µM | > 100 µM | > 100 µM | > 100 µM | > 100 µM | > 100 µM | > 100 µM | > 100 µM | > 100 µM | > 100 µM | > 100 µM | > 100 µM | > 100 µM | > 100 µM | > 100 µM | > 100 µM | > 100 µM
COc1ccc(Cc2cc3c(cc2OCC(=O)O)OCO3)cc1 |  | > 100 µM |  | > 100 µM |  | > 100 µM |  | > 100 µM |  | > 100 µM |  | > 100 µM |  | > 100 µM |  | > 100 µM |  | > 100 µM |  | > 100 µM
C[C@@H](CN1CC(=O)NC(=O)C1)N1CC(=O)NC(=O)C1 |  | 1120 µM |  | 767 µM |  | 570 µM |  | 2500 µM |  | 1030 µM |  | 553 µM |  | 754 µM |  | 1060 µM |  | 729 µM |  | 2300 µM
CN(CCc1ccccn1)c1nc(=[N+](C)C)ss1 |  | > 100 µM |  | > 100 µM |  | > 100 µM |  | > 100 µM |  | > 100 µM |  | > 100 µM |  | > 100 µM |  | > 100 µM |  | > 100 µM |  | > 100 µM
O=C(O)c1cc2ccccc2oc1=O |  | > 100 µM |  | > 100 µM |  | > 100 µM |  | > 100 µM |  | > 100 µM |  | > 100 µM |  | > 100 µM |  | > 100 µM |  | > 100 µM |  | > 100 µM
CCCCCCCCCc1cc[n+](CC(=O)c2ccc([N+](=O)[O-])cc2)cc1 | 1.75 µM | 3.25 µM | 1.04 µM | 2.28 µM | 1.23 µM | 2.54 µM | 0.338 µM | 2.02 µM | 0.403 µM | 1.63 µM | 1.53 µM | 3.08 µM | 0.565 µM | 2.06 µM | 1.48 µM | 2.9 µM | 1.66 µM | 3.19 µM | 0.439 µM | 2.15 µM
